Earlier results on 1 compound are cited in US8633194B2, “Pharmaceutical composition of piperazine derivatives” (UCB Pharma, S.A., priority 2004, dated 2014).

The data set concerns the target histamine H1-receptor (Homo sapiens, UniProt P35367). To be noted: in vitro.

histamine H1-receptor, sequence (P35367 whole entry, species assumed): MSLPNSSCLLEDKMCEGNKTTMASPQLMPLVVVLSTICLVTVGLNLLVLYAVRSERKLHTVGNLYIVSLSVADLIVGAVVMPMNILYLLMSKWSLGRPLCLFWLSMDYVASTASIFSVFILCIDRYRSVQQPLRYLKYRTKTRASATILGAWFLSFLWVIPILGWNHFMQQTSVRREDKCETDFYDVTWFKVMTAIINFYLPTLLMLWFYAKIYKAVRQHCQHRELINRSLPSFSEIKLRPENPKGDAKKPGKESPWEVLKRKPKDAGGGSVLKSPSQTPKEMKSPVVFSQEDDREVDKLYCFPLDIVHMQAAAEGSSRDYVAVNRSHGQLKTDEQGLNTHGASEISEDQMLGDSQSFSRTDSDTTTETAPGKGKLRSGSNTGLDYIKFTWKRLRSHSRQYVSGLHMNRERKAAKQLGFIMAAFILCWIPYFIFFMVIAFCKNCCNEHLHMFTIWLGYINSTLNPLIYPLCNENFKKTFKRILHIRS

In the case of `O=C(O)COCCN1CCN(C(c2ccc(F)cc2)c2ccc(F)cc2)CC1` [Efletirizine, 2-[2-[4-[bis(4-fluorophenyl)methyl]-1-piperazinyl]ethoxy]acetic acid], the “Affinity for H1-receptors” value is listed as “high affinity” and the “Selectivity for H1-receptors” value is given as “selectivity”.
